Patent US9585875B2, “TRPM8 antagonists” (Dompé S.P.A., priority 2011, dated 2017)
pIC50: −log10 of the molar value.

Experiments:
Male Wistar rats [1] = assay: Chronic constriction injury model, mechanical allodynia (Dynamic Plantar Aesthesiometer); format: in vivo, rat
Experimental: (§1) Male Wistar rats (220-250 g, Harlan Italy) were used (n=60). Animals were housed in a room with controlled temperature (22±1° C.), humidity (60±10%) and light (12 h per day) for at least a week before being used. Rats were randomly divided into sham, control and treatment groups; ten animals per group were used. All animal experiments were complied with the Italian (D.L. no.116 of Jan. 27, 1992) and associated guidelines in the European Communities Council (Directive of Nov. 24, 1986, 86/609/ECC).
(§2) Antiallodynic effects were assessed at 1 and 3 h post dose. Control animals received vehicle alone (0.5 ml/iv/rat; 10% solutol-NMP and 90% PBS).
(§3) Neuropathic pain behavior was induced by ligation of the sciatic nerve according to the method described by Bennett and Xie [Bennett G. J. and Xie Y. K. A peripheral mononeuropathy in rat that produces disorders of pain sensation like those seen in man, Pain, (1988) 33:87-107]. Briefly, rats were anaesthetized (100 mg/kg ketamine and 10 mg/kg xylazine i.p.) and the left sciatic nerve was exposed at the level of the thigh by blunt dissection through the biceps femoris. Proximal to the sciatic's trifurcation, about 12 mm of nerve was freed of adhering tissue and four ligatures were loosely tied around it with about 1 mm spacing so that the epineural circulation was preserved. The length of nerve thus affected was 6-8 mm long. The animals were allowed to recover and used the day after the surgery. Sham animals represent rats operated but not ligated.
To assess for changes in sensation or in the development of mechanical allodynia, sensitivity to tactile stimulation was measured using the Dynamic Plantar Aesthesiometer (DPA, Ugo Basile, Italy). Ligated animals were placed in a chamber with a mesh metal floor covered by a plastic dome that enabled the animal to walk freely, but not to jump. The mechanical stimulus was then delivered in the mid-plantar skin of the hind paw. The cut-off was fixed at 50 g, while the increasing force rate (ramp duration) was settled at 20 sec. […]

Male Wistar rats [2] = assay: Chronic constriction injury model, cold allodynia (acetone); format: in vivo, rat
Experimental: as §1, §2, §3
Cold sensitivity was measured as the number of foot withdrawal responses after application of acetone to the dorsal surface of the paw. A drop of acetone (15-20° C.) was applied to the dorsal surface of the ligated paw with a syringe connected to a thin polyethylene tube while the rats were standing on a metal mesh. A brisk foot withdrawal response, after the spread of acetone over the dorsal surface of the paw, was considered as a sign of cold allodynia. Basal response was measured on the days before treatment (2nd, 6th and 13th). […]

TRPM8 [3] = target: T1, TRPM8 (Homo sapiens, UniProt Q7Z2W7); assay: HTS cell-based Ca2+ mobilization assay (FLIPR TETRA) in HEK293/hTRPM8 cells, agonist Cooling Agent 10; parameters: expressed in transfected cells; conditions: HEK293/hTRPM8, Cooling Agent 10 at EC80
T1 sequence (Q7Z2W7 whole entry): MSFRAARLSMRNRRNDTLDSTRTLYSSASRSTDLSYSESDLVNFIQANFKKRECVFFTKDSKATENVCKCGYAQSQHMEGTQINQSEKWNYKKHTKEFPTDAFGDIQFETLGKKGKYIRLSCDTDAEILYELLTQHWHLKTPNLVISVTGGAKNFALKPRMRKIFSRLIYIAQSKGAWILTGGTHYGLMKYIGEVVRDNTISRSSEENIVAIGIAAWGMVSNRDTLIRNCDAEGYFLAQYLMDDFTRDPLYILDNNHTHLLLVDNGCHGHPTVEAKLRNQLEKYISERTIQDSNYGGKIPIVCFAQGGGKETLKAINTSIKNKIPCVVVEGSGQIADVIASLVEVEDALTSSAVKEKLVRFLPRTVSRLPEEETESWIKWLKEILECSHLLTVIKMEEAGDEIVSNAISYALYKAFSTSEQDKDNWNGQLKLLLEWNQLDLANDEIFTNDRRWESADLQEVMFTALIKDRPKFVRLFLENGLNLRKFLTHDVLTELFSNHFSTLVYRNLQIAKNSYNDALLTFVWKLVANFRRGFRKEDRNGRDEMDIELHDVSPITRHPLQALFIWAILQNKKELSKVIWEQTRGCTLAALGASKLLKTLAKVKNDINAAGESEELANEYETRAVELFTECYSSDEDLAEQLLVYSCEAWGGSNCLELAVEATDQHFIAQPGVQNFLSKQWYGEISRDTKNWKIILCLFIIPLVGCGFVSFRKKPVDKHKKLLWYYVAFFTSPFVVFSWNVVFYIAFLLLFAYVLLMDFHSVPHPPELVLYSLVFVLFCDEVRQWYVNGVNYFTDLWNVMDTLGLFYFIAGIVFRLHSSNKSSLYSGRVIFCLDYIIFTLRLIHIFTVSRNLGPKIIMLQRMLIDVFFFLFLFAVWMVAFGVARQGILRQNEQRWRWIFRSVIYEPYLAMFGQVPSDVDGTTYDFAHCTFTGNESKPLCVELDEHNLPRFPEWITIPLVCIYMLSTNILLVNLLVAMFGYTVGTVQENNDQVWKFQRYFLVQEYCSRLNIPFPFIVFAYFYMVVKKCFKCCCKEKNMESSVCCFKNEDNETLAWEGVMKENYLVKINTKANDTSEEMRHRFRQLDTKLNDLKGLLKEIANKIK
Excerpt: A functional cell-based assay for the identification of TRPM8 receptor antagonists, optimised to allow high throughput screening at FLIPR^TETRA, was developed in HEK293 cells by stable pure clone selection and functional characterization with a fluorescent calcium sensitive dye.
TRPM8 was cloned into the multiple cloning site of pcDNA3 mammalian expression vector; the obtained construct pcDNA3/hTRPM8 was fully sequence verified and used for the transfection of HEK293 cell line. HEK293 cells stably transfected with TRPM8 gene were maintained in Minimum essential medium. The cells were transfected with the pcDNA3/hTRPM8 vector by electroporation and then selected with medium containing 0.8 mg/ml G418 for 10-15 days.
The following commercial compounds were used as ligands:
Activator: Cooling Agent 10 (Takasago CAS N. 87061-04-9)
Blocker: Capsazepine (SIGMA cat #D_5879)
The experimental activities were performed using FLIPR^TETRA instruments.
HEK293 cells stably transfected with TRPM8 gene were maintained in Minimum essential medium.
The TRPM8 cell line was analysed for the response to a library of compounds using a Ca^2+ mobilization-dependent fluorescence signal in 384 wells microtiter plate format. The analysis was performed using the FLIPR^TETRA (MDC) with the ICCD Camera.
The execution of the assay involved the use of three microtiter plates:
1. Assay plate, containing cells loaded with dye and prepared as follows:
Cells were seeded at 15000 c/well in Poly-D-Lysine coated 384 wells Microtiter Plates in complete medium (25 μl/well).
24 h after seeding, the cell plates were washed with Tyrode assay buffer by the Microplate Washer and 10 μL of Tyrode assay buffer was left in each well.
Cells were then loaded with 10 μL/well of the Fluo-4 NW dye solution by CyBi®-Well pipettor. Each bottle of Fluo4-NW dye (Molecular Probes cat. #F36206, component A) was re-suspended in 8 mL of Tyrode assay buffer and supplemented with 100 μL of water-soluble probenecid (MolecularProbes cat.#F36206, component B).
Dye loaded cell plates were incubated for 1 h at room temperature.
2. Compound Dilution Plate (FIG. 1), containing diluted test compounds, formulated as follows: […]
Column 1: wells containing Assay Buffer plus DMSO 0.5% final
Columns 3-22: wells containing Assay Buffer plus 0.5% DMSO final. To these wells the compounds to be tested were added at 3× concentration.
Column 23: alternating wells of Max Signal Control in second injection (Assay buffer) and Min Signal Control in second injection (Antagonist Capsazepine IC100, 50 μM) in Assay buffer plus 0.5% DMSO final;
Column 24: wells containing Capsazepine (Antagonist) at 8 concentrations in duplicate at final concentrations of 50 μM, 25 μM, 6.25 μM, 3.15 μM, 1.56 μM, 780 nM, […] in Assay buffer plus 0.5% DMSO final.
3. Activator Plate (FIG. 2), containing agonist Cooling Agent 10 at EC80, formulated as follows:
Column 1: Cooling Agent 10 (Agonist) at 8 concentrations dose response in duplicate at final concentrations of 100 μM, 31.6 μM, 10 μM, 3.16 μM, 1 μM, 316 nM, 100 nM, 31.6 nM in Assay buffer;
Columns 2-24: Cooling Agent 10 (Agonist) at EC80 (3 fold concentrated, 20 μM final) in Assay buffer.
The test was carried out according to a procedure comprising the following steps:
1. The samples contained in the wells of the Compound Plate were added to the corresponding wells of the Assay Plate by the FLIPR^TETRA, thus resulting in the addition in Columns 3-22 of the test compounds at 3× concentration to the cells of the assay plates. No mixing was performed in the assay wells and the signal of the emitted fluorescence was recorded for 300 seconds. 2. The samples contained in the wells of the Activator Plate were added to the corresponding wells of the Assay Plate by the FLIPR^TETRA, thus resulting in the addition in Columns 3-22 of the Assay Plate of the agonist compound in addition to the test compounds. The signal of the emitted fluorescence was recorded for 180 seconds.

TRPM8 [4] = target: T1, TRPM8
Excerpt: Values were considered significant if the test compound mean was three or more standard deviations away from the positive control agonist mean.

Log D = format: physicochemical
TRPV1 = TRPV1 (Homo sapiens, UniProt Q8NER1); assay: Calcium influx counterassay, agonist capsaicin; format: cell-based; conditions: 0.1 μM capsaicin = 100%, read-out: Normalized % inhibition (TRPV1)
TRPV1, sequence (Q8NER1 whole entry, species assumed): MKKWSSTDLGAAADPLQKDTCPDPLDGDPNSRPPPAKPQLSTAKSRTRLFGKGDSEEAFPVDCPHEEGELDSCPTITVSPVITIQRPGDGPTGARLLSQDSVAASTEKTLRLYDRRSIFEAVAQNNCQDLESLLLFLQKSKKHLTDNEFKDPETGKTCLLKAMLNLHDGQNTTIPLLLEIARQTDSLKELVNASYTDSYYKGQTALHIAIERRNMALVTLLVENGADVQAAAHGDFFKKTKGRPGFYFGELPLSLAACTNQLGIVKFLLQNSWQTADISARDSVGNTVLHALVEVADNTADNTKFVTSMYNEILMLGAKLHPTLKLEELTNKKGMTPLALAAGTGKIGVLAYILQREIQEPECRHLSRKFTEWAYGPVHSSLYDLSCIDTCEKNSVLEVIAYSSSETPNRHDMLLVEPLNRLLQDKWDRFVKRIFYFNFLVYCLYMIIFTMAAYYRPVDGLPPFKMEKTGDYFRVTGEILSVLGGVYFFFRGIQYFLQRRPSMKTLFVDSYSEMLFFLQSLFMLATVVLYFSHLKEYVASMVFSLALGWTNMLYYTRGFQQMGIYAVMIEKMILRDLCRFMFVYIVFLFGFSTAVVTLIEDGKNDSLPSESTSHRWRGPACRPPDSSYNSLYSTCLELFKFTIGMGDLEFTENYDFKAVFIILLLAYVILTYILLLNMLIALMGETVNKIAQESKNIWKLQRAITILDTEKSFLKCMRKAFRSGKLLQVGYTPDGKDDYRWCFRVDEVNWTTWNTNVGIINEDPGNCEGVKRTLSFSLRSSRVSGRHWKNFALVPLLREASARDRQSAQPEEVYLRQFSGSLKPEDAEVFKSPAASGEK
Experimental: In order to address more specifically the potential selectivity issues, a counterassay was carried out for 10, 45 and 118 against TRPV1 and TRPV4 ion channels, both involved in the nociception (Jhaveri M D, et al 2005. Eur. J. Neurosci. 22 (2): 361-70, Brierley S M et al, 2008, Gastroenterology. 2008 June; 134(7):2059-69. ). The ability of each test compound to act as an antagonist of TRPV1 was evaluated with a calcium influx assay.

TRPV4 = TRPV4 (Homo sapiens, UniProt Q9HBA0); assay: Calcium influx counterassay, agonist GSK1016790A; format: cell-based; conditions: 10 μM GSK1016790A = 100%, read-out: Normalized % inhibition (TRPV4)
TRPV4, sequence (Q9HBA0 whole entry, species assumed): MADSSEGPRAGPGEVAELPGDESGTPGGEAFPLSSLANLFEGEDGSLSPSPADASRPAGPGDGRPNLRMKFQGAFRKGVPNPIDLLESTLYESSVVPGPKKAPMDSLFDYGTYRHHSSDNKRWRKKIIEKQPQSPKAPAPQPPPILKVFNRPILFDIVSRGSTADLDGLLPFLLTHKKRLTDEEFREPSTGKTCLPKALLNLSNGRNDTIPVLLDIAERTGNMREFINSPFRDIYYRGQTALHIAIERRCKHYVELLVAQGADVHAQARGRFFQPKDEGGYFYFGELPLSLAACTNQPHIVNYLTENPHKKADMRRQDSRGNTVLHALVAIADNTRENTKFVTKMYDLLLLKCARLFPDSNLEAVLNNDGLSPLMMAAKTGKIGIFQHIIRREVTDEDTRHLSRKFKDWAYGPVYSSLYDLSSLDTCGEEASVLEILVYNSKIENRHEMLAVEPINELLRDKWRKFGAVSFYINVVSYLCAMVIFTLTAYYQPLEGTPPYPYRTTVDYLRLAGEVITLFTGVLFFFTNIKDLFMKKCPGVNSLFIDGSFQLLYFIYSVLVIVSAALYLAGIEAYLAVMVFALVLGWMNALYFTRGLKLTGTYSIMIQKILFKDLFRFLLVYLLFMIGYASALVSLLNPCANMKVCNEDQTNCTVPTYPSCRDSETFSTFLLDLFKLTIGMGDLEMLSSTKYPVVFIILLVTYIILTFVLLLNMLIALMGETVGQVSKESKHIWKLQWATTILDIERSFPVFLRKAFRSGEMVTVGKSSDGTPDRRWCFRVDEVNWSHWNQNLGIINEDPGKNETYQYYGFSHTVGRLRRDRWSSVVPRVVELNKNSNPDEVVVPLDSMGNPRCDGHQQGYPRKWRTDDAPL
Experimental: In parallel, the ability of each test compound to act as an antagonist of TRPV4 was evaluated with a calcium influx assay.

[5] = 10 mg/kg i.v., day 7 after nerve injury, 1 hour post-dose
[6] = 10 mg/kg i.v., day 7, 1 hour post-dose
[7] = day 14 after surgery, 1 h post-dose (Compound 118: 10 mg/kg i.v.)

O=C(O)c1sc(-c2ccc(Cl)cc2)nc1O [Compound 1, 2-(4-chlorophenyl)-4-hydroxy-1,3-thiazole-5-carboxylic acid]
inhibition of mechanical allodynia (Male Wistar rats [1]; [5]): 26 % of inhibition | inhibition of cold allodynia (Male Wistar rats [2]; [5]): 39 % of inhibition | pIC50 (TRPM8 [3]): > 5.00

Cc1ccc(-c2nc(O)c(C(=O)O)s2)cc1 [Compound 2, 4-hydroxy-2-(4-methylphenyl)-1,3-thiazole-5-carboxylic acid]
pIC50 (TRPM8 [3]): > 5.00

CCOC(=O)c1sc(-c2ccccc2)nc1OCc1ccc(Cl)cc1 [Compound 27, ethyl 4-[(4-chlorobenzyl)oxy]-2-phenyl-1,3-thiazole-5-carboxylate]
pIC50 (TRPM8 [3]): > 5.00

CCOC(=O)c1sc(-c2ccccc2)nc1OC(=O)c1ccc(C(F)(F)F)cc1 [Compound 36, ethyl 2-phenyl-4-{[4-(trifluoromethyl)benzoyl]oxy}-1,3-thiazole-5-carboxylate]
pIC50 (TRPM8 [3]): > 5.00

CCOC(=O)c1sc(-c2ccc(Cl)cc2)nc1OCCN [Compound 41, ethyl 4-(2-aminoethoxy)-2-(4-chlorophenyl)-1,3-thiazole-5-carboxylate]
pIC50 (TRPM8 [3]): > 5.00

CCOC(=O)c1sc(-c2ccc(C)cc2)nc1NCCN [Compound 67, ethyl 4-[(2-aminoethyl)amino]-2-(4-methylphenyl)-1,3-thiazole-5-carboxylate]
pIC50 (TRPM8 [3]): > 5.00

CCOC(=O)c1sc(-c2ccc(Cl)cc2)nc1NCCNC [Compound 68, ethyl 2-(4-chlorophenyl)-4-{[2-(methylamino)ethyl]amino}-1,3-thiazole-5-carboxylate]
pIC50 (TRPM8 [3]): > 5.00

CCOC(=O)c1sc(-c2ccc(Cl)cc2)nc1NCCN [Compound 70, ethyl 4-[(2-aminoethyl)amino]-2-(4-chlorophenyl)-1,3-thiazole-5-carboxylate]
pIC50 (TRPM8 [3]): > 5.00

Cc1ccc(-c2nc(OCc3ccc(Cl)cc3)c(C(=O)O)s2)cc1 [Compound 83, sodium 4-[(4-chlorobenzyl)oxy]-2-(4-methylphenyl)-1,3-thiazole-5-carboxylate]
pIC50 (TRPM8 [3]): > 5.00

O=C(O)c1sc(-c2ccc(Cl)cc2)nc1OCc1ccc(Cl)cc1 [Compound 84, sodium 4-(4-chlorobenzyloxy)-2-(4-chlorophenyl)-1,3-thiazole-5-carboxylate]
pIC50 (TRPM8 [3]): > 5.00

CCn1nnc(-c2sc(-c3cccc(F)c3)nc2O)n1 [Compound 118, 2-(3-fluorophenyl)-5-(2-ethyl-2H-tetrazol-5-yl)-1,3-thiazol-4-ol]
antagonist activity in calcium influx assay (TRPM8 [4]): confirmed the antagonist activity | mechanical allodynia (Male Wistar rats [1]; [6]): significantly attenuated | inhibition of mechanical allodynia (Male Wistar rats [1]; [7]): no inhibition | log D values (Log D): low | inhibition at 1 µM (TRPV1; Test Conc. 1 uM): 1.2% | inhibition at 10 µM (TRPV1; Test Conc. 10 uM): 2.3% | inhibition at 1 µM (TRPV4; Test Conc. 1 uM): 2% | inhibition at 10 µM (TRPV4; Test Conc. 10 uM): 8.9% | cold allodynia (Male Wistar rats [2]; [6]): significantly attenuated | inhibition of cold allodynia (Male Wistar rats [2]; [7]): 52 % of inhibition
